According to patent publication US12325676B2, “Cationic lipid compound and composition for delivery of nucleic acids and use thereof” (Shenzhen Rhegen Biotechnology Co., Ltd., priority 2022, dated 2025):

Assays:
[1] = Encapsulation rate of mRNA-loaded lipid nanoparticles (Ribogreen kit); assay type: physicochemical
Protocol: (§1) Luciferase mRNA was diluted in 10-100 mM citrate buffer at pH 4.0; the lipid components (cationic lipids shown in the present disclosure: DSPC:cholesterol:PEG lipids (DMG-PEG2000)) were dissolved in ethanol at a molar ratio of 50:10:38.5:1.5.
(§2) 3 mL of a mRNA buffer and 1 mL of a lipid solution were loaded into two 5 mL syringes respectively, and the syringes were installed on a microfluidic syringe pump. Chips were connected to the syringes and syringe pump flow rate was set. Clicking the start button of the syringe pump caused injection into the chip at a flow rate ratio of 3:1. Under observation of the color of the product at the exit of the chip, after discarding the first 5 milky white droplets (about 100 μL), the back-end sample was collected into an EP tube. The collected product was placed in a dialysis bag and dialyzed for 6 h (MWCO: 100 KDa) in 10 mM PBS (pH 7.4) intervals. Subsequently, after being concentrated by ultrafiltration to the desired concentration, the lipid nanoparticles were filtered through a 0.22 μm sterile filter and then stored at 4° C.
(§3) Tests were performed to calculate the encapsulation rate of the products according to the instructions of Ribogreen kit. Particle size and polydispersity index (PDI) detection as well as zeta potential analysis was performed on a Malvern Zetasizer nano instrument using standard assays.

[2] = Particle size, PDI and zeta potential of mRNA-loaded lipid nanoparticles (Malvern Zetasizer nano); assay type: physicochemical
Protocol: as §1, §2, §3

[3] = Encapsulation rate of mRNA-loaded lipid nanoparticles (Ribogreen kit); assay type: physicochemical; conditions: Table 4 batch; EPO mRNA LNP prepared as Example 20
[4] = Particle size, PDI and zeta potential of mRNA-loaded lipid nanoparticles (Malvern Zetasizer nano); assay type: physicochemical; conditions: Table 4 batch; EPO mRNA LNP prepared as Example 20
BALB/c mice [5] = test: In vivo expression of luciferase mRNA delivered by LNP, tail intravenous injection, small animal imaging; conditions: Table 3, 5 μg mRNA, female BALB/c mice, DLin-MC3-DMA = 100
Protocol: LUC-mRNA-lipid nanoparticles containing 5 μg mRNA (see SEQ ID NO: 1 in the Patent Application Publication CN114380724A for the corresponding nucleotide sequence of LUC-mRNA) were injected via tail intravenous injection in 6-8 week old female BALB/c mice, prepared as in Example 19. 100 μg of D-Luciferin Potassium Salt was injected via tail intravenous injection into the mice at specific time points and assayed using the PerkinElmer Small Animal Imaging System. Fluc is commonly used in mammalian cell cultures to measure gene expression and cell viability, and it emits biological fluorescent light in the presence of the substrate […]. The basic characteristics of the mRNA used include ARCA cap structure, polyA tail length of 120 nt, and complete substitution of pseudouridine.
The effect of delivering luciferase mRNA using more cationic lipids were validated according to the methods of Example 20 and Example 21.

BALB/c mice [6] = test: In vivo EPO protein expression after tail i.v. injection of EPO-mRNA LNP, serum ELISA; conditions: 6 hours after tail i.v. injection of 20 μg EPO-mRNA-lipid nanoparticles, female Balb/c mice
Protocol: In the example, the effects of in vivo transfection of erythropoietin (EPO) by various cationic liposomes were compared. Nanoparticles were prepared in the same manner as in Example 20, and the nucleotide sequence corresponding to the EPO mRNA used is given in CN114380724B, SEQ ID NO:2. After preparation, 20 μg of EPO-mRNA-lipid nanoparticles were injected via tail intravenous injection in 6-8 week female Balb/c mice. 6 hours later the mice were subjected to blood sampling from the eye frame. After centrifugation to separate the serum, EPO protein expression was determined using ELISA. The basic characteristics of the mRNA used include ARCA cap structure, polyA tail length of 100-120 nt, and complete substitution of pseudouridine.

[7] = Table 1, Luciferase mRNA LNP, cationic lipid:DSPC:cholesterol:DMG-PEG2000 50:10:38.5:1.5 molar
[8] = Table 3 batch, luciferase mRNA LNP prepared as Example 20

Structure (SMILES) | Encapsulation rate (%) [1, 7] | PDI [2, 7] | Particle size (nm) [2, 7] | Zeta potential (mV) [2, 7] | Encapsulation rate (%) [1, 8] | Encapsulation rate (%) [3] | PDI [4] | Particle size (nm) [4] | PDI [2, 8] | Particle size (nm) [2, 8] | relative fluorescence intensity (%) (BALB/c mice [5]) | EPO concentration (BALB/c mice [6])
CCCCCCCCCCOCC(CCC)C(=O)OCCCCCN(CCO)CCCCCCCC(=O)OC(CCCCCCCC)CCCCCCCC (centres unmarked) [Compound 4] | 83.7% | 0.21 | 94.4 nm | 0.39 mV | – | – | – | – | – | – | – | –
CCCCCCCCC(CCCCCCCC)OC(=O)CCCCCCCN(CCO)CCCCCCC(=O)OCCOCCCCCCC [Compound 14] | 95.7% | 0.22 | 119.0 nm | −3.27 mV | – | – | – | – | – | – | – | –
CCCCCCCCOCC(C)C(=O)OCCCCCN(CCO)CCCCCCCOC(=O)C(CCCCCCCC)CCCCCCCC (centres unmarked) [Compound 16] | – | – | – | – | 95.6% | 96.5% | 0.12 | 75.4 nm | 0.20 | 90.9 nm | 574 ± 102% | 3.01e+07 pg/mL
CCCCCCCCC(CCCCCCCC)C(=O)OCCCCCCCN(CCO)CCCCCCCOC(=O)C(C)COCCCCCC (centres unmarked) [Compound 17] | 92.5% | 0.10 | 90.9 nm | −0.15 mV | 97.6% | 96.9% | 0.09 | 74.0 nm | 0.11 | 68.2 nm | 686 ± 45% | 3.25e+07 pg/mL
CCCCCCCCOCC(C)C(=O)OCCCCCN(CCCCCCCC(=O)OC(CCCCCCCC)CCCCCCCC)CCN(CC)CC (centres unmarked) [Compound 28] | 95.9% | 0.04 | 127.6 nm | 5.29 mV | – | – | – | – | – | – | – | –
CCCCCCCCCCSCCOC(=O)CCCCCCCN(CCO)CCCCCCCC(=O)OC(CCCCCCCC)CCCCCCCC [Compound 41] | 94.9% | 0.17 | 123.4 nm | −7.02 mV | – | – | – | – | – | – | – | –
CCCCCCCCSC(CCCCCC)C(=O)OCCCCCCN(CCO)CCCCCCOC(=O)C(CCCCCC)CCCCCCCC (centres unmarked) [Compound 46] | 95.6% | 0.11 | 101.3 nm | −4.12 mV | – | – | – | – | – | – | – | –
CCCCCCCCSCCOC(=O)CCCCCCCN(CCCCCCCC(=O)OC(CCCCCCCC)CCCCCCCC)CCN(C)C [Compound 55] | 91.1% | 0.13 | 102.3 nm | 7.37 mV | – | – | – | – | – | – | – | –
CCCCCCCCCCSCCC(=O)OCCCCCN(CCCCCCCC(=O)OC(CCCCCCCC)CCCCCCCC)CCN(C)C [Compound 57] | 94.1% | 0.24 | 122.8 nm | 7.09 mV | – | – | – | – | – | – | – | –

Further lines, with some results ahead:

Encapsulation rate (%) [1, 7] | PDI [2, 7] | Particle size (nm) [2, 7] | Zeta potential (mV) [2, 7] | Encapsulation rate (%) [1, 8] | Encapsulation rate (%) [3] | PDI [4] | Particle size (nm) [4] | PDI [2, 8] | Particle size (nm) [2, 8] | Structure (SMILES) | relative fluorescence intensity (%) (BALB/c mice [5]) | EPO concentration (BALB/c mice [6])
87.8% | 0.12 | 97.3 nm | 0.49 mV | – | – | – | – | – | – | CCCCCCCCCCOCC(C)C(=O)OCCCCCN(CCO)CCCCCCCC(=O)OC(CCCCCCCC)CCCCCCCC (centres unmarked) [Compound 2] | – | –
87.5% | 0.10 | 113.9 nm | 1.95 mV | – | – | – | – | – | – | CCCCCCCCCCOCC(CC)C(=O)OCCCCCN(CCO)CCCCCCCC(=O)OC(CCCCCCCC)CCCCCCCC (centres unmarked) [Compound 3] | – | –
63.9% | 0.17 | 95.6 nm | 0.79 mV | – | – | – | – | – | – | CCCCCCCCOCC(CCCC)C(=O)OCCCCCN(CCO)CCCCCCCC(=O)OC(CCCCCCCC)CCCCCCCC (centres unmarked) [Compound 6] | – | –
– | – | – | – | 97.0% | 96.5% | 0.11 | 81.7 nm | 0.10 | 75.4 nm | CCCCCCCCC(CCCCCCCC)OC(=O)CCCCCCCN(CCO)CCCCCCCOC(=O)C(C)COCCCCCC (centres unmarked) [Compound 23] | 764 ± 39% | 4.11e+07 pg/mL
95.6% | 0.03 | 105.5 nm | −1.31 mV | – | – | – | – | – | – | CCCCCCCCCCSCCC(=O)OCCCCCN(CCO)CCCCCCCC(=O)OC(CCCCCCCC)CCCCCCCC [Compound 29] | – | –
95.7% | 0.11 | 121.2 nm | −0.26 mV | – | – | – | – | – | – | CCCCCCCCCCSCC(C)C(=O)OCCCCCN(CCO)CCCCCCCC(=O)OC(CCCCCCCC)CCCCCCCC (centres unmarked) [Compound 30] | – | –
93.9% | 0.11 | 98.4 nm | 0.55 mV | – | – | – | – | – | – | CCCCCCCCSCC(CC)C(=O)OCCCCCN(CCO)CCCCCCCC(=O)OC(CCCCCCCC)CCCCCCCC (centres unmarked) [Compound 36] | – | –
96.4% | 0.21 | 104.1 nm | −2.82 mV | 97.1% | 95.5% | 0.17 | 82.5 nm | 0.10 | 71.1 nm | CCCCCCCCSCC(C)C(=O)OCCCCCN(CCO)CCCCCCCOC(=O)C(CCCCCCCC)CCCCCCCC (centres unmarked) [Compound 44] | 843 ± 52% | 4.89e+07 pg/mL
– | – | – | – | 96.8% | 93.9% | 0.15 | 81.0 nm | 0.15 | 80.9 nm | CCCCCCCCC(CCCCCCCC)C(=O)OCCCCCCCN(CCO)CCCCCCCOC(=O)C(C)CSCCCCCC (centres unmarked) [Compound 45] | 559 ± 33% | 3.46e+07 pg/mL
92.5% | 0.10 | 94.2 nm | −0.14 mV | – | – | – | – | – | – | CCCCCCCCSCC(C)C(=O)OCCCCCN(CCCO)CCCCCCCC(=O)OC(CCCCCCCC)CCCCCCCC (centres unmarked) [Compound 48] | – | –
